Biological target: T1, human RXFP1 (Homo sapiens, UniProt Q9HBX9)
T1 construct: expressed in transfected cells
T1 sequence (Q9HBX9 1-757): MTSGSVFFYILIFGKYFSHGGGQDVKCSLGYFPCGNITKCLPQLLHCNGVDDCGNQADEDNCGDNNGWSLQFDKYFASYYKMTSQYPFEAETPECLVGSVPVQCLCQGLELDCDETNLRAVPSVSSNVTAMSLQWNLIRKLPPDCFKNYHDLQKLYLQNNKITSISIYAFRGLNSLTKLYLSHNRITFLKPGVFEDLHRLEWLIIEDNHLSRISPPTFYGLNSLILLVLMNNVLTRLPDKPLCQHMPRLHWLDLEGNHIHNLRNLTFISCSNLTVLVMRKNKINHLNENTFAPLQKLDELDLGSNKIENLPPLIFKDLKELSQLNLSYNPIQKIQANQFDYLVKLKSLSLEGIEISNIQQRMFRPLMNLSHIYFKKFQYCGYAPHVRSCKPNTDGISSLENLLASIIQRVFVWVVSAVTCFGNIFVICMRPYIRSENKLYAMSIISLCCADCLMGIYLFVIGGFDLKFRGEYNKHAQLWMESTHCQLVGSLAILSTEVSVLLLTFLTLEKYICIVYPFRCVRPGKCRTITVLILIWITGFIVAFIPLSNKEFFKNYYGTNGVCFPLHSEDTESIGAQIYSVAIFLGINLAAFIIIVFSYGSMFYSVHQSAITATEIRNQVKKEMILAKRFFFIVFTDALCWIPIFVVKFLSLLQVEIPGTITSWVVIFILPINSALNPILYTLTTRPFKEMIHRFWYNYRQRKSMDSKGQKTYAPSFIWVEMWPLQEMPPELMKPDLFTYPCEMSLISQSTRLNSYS
Assay: RXFP1 cAMP assay (hRXFP1 HEK293 cAMP assay, HTRF)
Assay type: cell-based
Conditions: HEK293 cells stably expressing human RXFP1, 30 min at room temperature, read-out: cAMP hRXFP1 HEK293 Assay EC50
Method in brief: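 HEK293 cells stably expressing human RXFP1 (1500 cells/well) in HBSS/20 mM HEPES/0.05% BSA/0.5 mM IBMX. Compounds were tested at 0.010 nM–50 μM final (2% DMSO) for 30 min at room temperature. cAMP was measured by HTRF and values derived by 4-parameter logistic fit.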

Row | EC50 [nM] | Structure (SMILES)
1 | 2.4 | COc1ccc(C2=NO[C@H]3C[C@H](CO)C[C@@H]23)cc1C(=O)N[C@H]1[C@@H](C(=O)Nc2ccc(F)c(C(F)(F)F)c2)[C@H]2CC[C@@H]1/C2=C\CC(O)C(F)(F)F (stereo partly shown) [compound 820]
2 | 448 | CN(C)c1c(Cl)cc(C2=NOC3COCC23)cc1C(=O)N[C@H]1[C@@H](C(=O)Nc2ccc(F)c(C(F)(F)F)c2)[C@H]2CC[C@@H]1/C2=C\C(F)(F)F (single isomer, unassigned) [compound 670]
3 | 1300 | COc1ccc(C2=NOC3C(O)CCC23)cc1C(=O)N[C@H]1[C@@H](C(=O)Nc2ccc(F)c(C(F)(F)F)c2)[C@H]2CC[C@@H]1/C2=C\C1CC1 (single isomer, unassigned) [compound 706]
4 | 3 | COc1ccc(-c2cc(C(OC(=O)Nc3cccc(F)c3)C(F)(F)F)ccc2F)cc1C(=O)N[C@@H]1C2CCC(/C2=C/C2CC2)[C@@H]1C(=O)Nc1ccc(F)c(C(F)(F)F)c1 (stereo partly shown) [compound 228]
5 | 2900 | COc1ccc(N2CCCC(C(=O)O)C2)cc1C(=O)N[C@@H]1C2CCC(C2=C(C)C)[C@@H]1C(=O)Nc1ccc(F)c(C(F)(F)F)c1 (stereo partly shown) [compound 142]
6 | 800 | CCOC(=O)c1coc(-c2ccc(OC)c(C(=O)N[C@@H]3C4CCC(C4=C(C)C)[C@@H]3C(=O)Nc3ccc(F)c(C(F)(F)F)c3)c2)n1 (stereo partly shown) [Example 110]
7 | 3.6 | COc1c(F)cc(-c2ccc3c(c2)S(=O)(=O)N(C(C)(C)C)C3)cc1C(=O)N[C@H]1[C@@H](C(=O)N[C@H](C)C2(C)CC2)[C@H]2CC[C@@H]1/C2=C\C1CC1 [compound 916]
8 | 3.5 | COc1ccc(-c2cc([C@H](C)O)on2)cc1C(=O)N[C@H]1[C@@H](C(=O)Nc2ccc(F)c(C(F)(F)F)c2)[C@H]2CC[C@@H]1/C2=C\C1CC1 [compound 465]
9 | 19.3 | COc1ccc(C2=NOC3COCC23)cc1C(=O)N[C@H]1[C@@H](C(=O)NCCc2ccccc2C)[C@H]2CC[C@@H]1/C2=C\C1CC1 (stereo partly shown) [compound 520]
10 | 217 | COCc1ccccc1CNC(=O)[C@@H]1[C@H](NC(=O)c2cc(C3=NOC4COCC34)ccc2OC)[C@@H]2CC[C@H]1/C2=C/C1CC1 (stereo partly shown) [compound 641]
11 | 37.4 | CCC(CC)CNC(=O)[C@@H]1[C@H](NC(=O)c2cc(C3=NOC4COCC34)ccc2OC)[C@@H]2CC[C@H]1/C2=C/C1CC1 (stereo partly shown) [compound 553]
12 | 32.1 | COc1ccc(C2=NOC(COCCO)C2)cc1C(=O)N[C@H]1[C@@H](C(=O)Nc2ccc(F)c(C(F)(F)F)c2)[C@H]2CC[C@@H]1/C2=C\C1CC1 (stereo partly shown) [compound 546]
13 | 2.3 | CC12CC(NC(=O)[C@@H]3[C@H](NC(=O)c4cc(C5=NOC6CC(CO)CC56)cc(F)c4OCC4CC4)[C@@H]4CC[C@H]3/C4=C/C3CC3)(C1)C2 (stereo partly shown) [compound 764]
14 | 4.5 | COc1ccc(C2=NO[C@H]3CC(CO)C[C@@H]23)cc1C(=O)N[C@H]1[C@@H](C(=O)Nc2ccc(F)c(C(F)(F)F)c2)[C@H]2CC[C@@H]1/C2=C\C1CC(F)(F)C1 (stereo partly shown) [compound 840]
15 | 0.8 | COc1ccc(C2=NO[C@H]3C[C@H](CO)C[C@@H]23)cc1C(=O)N[C@H]1[C@@H](C(=O)N[C@H](C)C2(C)CC2)[C@H]2CC[C@@H]1/C2=C\CCC(F)(F)F [compound 812]
16 | 74.9 | COc1ccc(C2=NO[C@@H]3[C@H](O)CC[C@H]23)cc1C(=O)N[C@H]1[C@@H](C(=O)Nc2ccc(F)c(C(F)(F)F)c2)[C@H]2CC[C@@H]1/C2=C\C1CC1 (single isomer, unassigned) [compound 583]
17 | 100 | C=C/C=C1\C2CCC1[C@H](C(=O)Nc1ccc(F)c(C(F)(F)F)c1)[C@@H]2NC(=O)c1cc(-c2cc(C(=O)O)ccc2F)ccc1OC (stereo partly shown) [compound 158]
18 | 87.1 | COc1ccc(C2=NOC3COCC23)cc1C(=O)N[C@H]1[C@@H](C(=O)NCC2CCCC2)[C@H]2CC[C@@H]1/C2=C\C1CC1 (stereo partly shown) [compound 592]
19 | 1710 | COc1ccc(-c2cc(C(=O)O)ccc2F)cc1C(=O)N[C@@H]1C2CCC(/C2=C/C2CC2)[C@@H]1C(=O)NC1CC(F)(F)C1 (stereo partly shown) [compound 304]
20 | 3.7 | COc1c(F)cc(C2=NOC3CC(CO)CC23)cc1C(=O)N[C@H]1[C@@H](C(=O)Nc2ccc(F)c(C(F)(F)F)c2)[C@H]2CC[C@@H]1/C2=C\CC(C)C (stereo partly shown) [compound 796]

Row | EC50 [nM] | Structure (SMILES)
21 | 1960 | COc1ccc(C2CCCN2C(=O)OC(C)(C)C)cc1C(=O)N[C@@H]1C2CCC(/C2=C/C2CC2)[C@@H]1C(=O)Nc1ccc(F)c(C(F)(F)F)c1 (single isomer, unassigned) [compound 715]
22 | 3.5 | COc1ccc(-c2ncc(CO)s2)cc1C(=O)N[C@H]1[C@@H](C(=O)Nc2ccc(F)c(C(F)(F)F)c2)[C@H]2CC[C@@H]1/C2=C\C1CCCC1 [compound 750]
23 | 169 | COc1ccc(C2=NOC3(CO)CCC23CO)cc1C(=O)N[C@H]1[C@@H](C(=O)Nc2ccc(F)c(C(F)(F)F)c2)[C@H]2CC[C@@H]1/C2=C\C1CC1 (single isomer, unassigned) [compound 623]
24 | 3.5 | COc1ccc(C2=NOC3CC(CO)CC23)cc1C(=O)N[C@H]1[C@@H](C(=O)Nc2ccc(F)c(C(F)(F)F)c2)[C@H]2CC[C@@H]1/C2=C\c1cncs1 (stereo partly shown) [compound 803]
25 | 110 | COc1cc(C(=O)N[C@H]2[C@@H](C(=O)Nc3ccc(F)c(C(F)(F)F)c3)[C@H]3CC[C@@H]2/C3=C\C2CC2)cc(C2=NOC3COCC23)c1 (single isomer, unassigned) [compound 602]
26 | 55 | COc1cc(F)c(F)cc1C(=O)N[C@@H]1C2CCC(/C2=C/c2cccc(F)c2)[C@@H]1C(=O)Nc1ccc(F)c(C(F)(F)F)c1 (stereo partly shown) [compound 30]
27 | 1 | COc1ccc(-c2cc(C(OC(=O)NC3CCC3)C(F)F)ccc2F)cc1C(=O)N[C@H]1[C@@H](C(=O)Nc2ccc(F)c(C(F)(F)F)c2)[C@H]2CC[C@@H]1/C2=C\C1CC1 (single isomer, unassigned) [Example 230]
28 | 0.9 | COc1ccc(-c2cc(C(OC(=O)NC(C)(C)C)C(=O)O)ccc2F)cc1C(=O)N[C@H]1[C@@H](C(=O)Nc2ccc(F)c(C(F)(F)F)c2)[C@H]2CC[C@@H]1/C2=C\C1CCCC1 (stereo partly shown) [compound 933]
29 | 0.1 | COc1ccc(-c2cc(S(C)(=O)=O)ccc2F)cc1C(=O)N[C@H]1[C@@H](C(=O)Nc2ccc(F)c(C(F)(F)F)c2)[C@H]2CC[C@@H]1/C2=C\C1CCCC1 [compound 907]
30 | 118 | COc1ccc(C2=NOC3COCC23)cc1C(=O)N[C@H]1[C@@H](C(=O)NC2CC3(C2)CC(F)(F)C3)[C@H]2CC[C@@H]1/C2=C\C1CC1 (stereo partly shown) [compound 605]
31 | 5.8 | COc1ccc(-c2cc([C@H](OC(=O)NC3CCC3)C(=O)O)ccc2F)cc1C(=O)N[C@H]1[C@@H](C(=O)Nc2ccc(F)c(C(F)(F)F)c2)[C@H]2CC[C@@H]1/C2=C\CC(C)C [compound 937]
32 | 2 | COc1ccc(C2=NOC3CC(CO)CC23)cc1C(=O)N[C@@H]1C2CCC(/C2=C/C2CC2)[C@@H]1C(=O)Nc1ccc(F)c(C(F)(F)F)c1 (single isomer, unassigned) [compound 433]
33 | 2490 | O=C(N[C@H]1[C@@H](C(=O)Nc2ccc(F)c(C(F)(F)F)c2)[C@H]2CC[C@@H]1/C2=C\C1CC1)c1cccc(C2=NOC3COCC23)c1 (single isomer, unassigned) [compound 719]
34 | 22.9 | COc1cc(C)c(C2=NOC3COCC23)cc1C(=O)N[C@H]1[C@@H](C(=O)Nc2ccc(F)c(C(F)(F)F)c2)[C@H]2CC[C@@H]1/C2=C\C1CC1 (stereo partly shown) [compound 532]
35 | 177 | O=C(N[C@H]1[C@@H](C(=O)Nc2ccc(F)c(C(F)(F)F)c2)[C@H]2CC[C@@H]1/C2=C\C1CC1)c1cccc(C2=NOC3CC(O)CC23)c1 (stereo partly shown) [compound 628]
36 | 110 | COc1ccc(-c2cc(C(=O)NS(C)(=O)=O)ccc2F)cc1C(=O)N[C@@H]1C2CCC(/C2=C/Br)[C@@H]1C(=O)Nc1ccc(F)c(C(F)(F)F)c1 (stereo partly shown) [compound 161]
37 | 250 | COc1ccc(C2=NOC3COCC23)cc1C(=O)N[C@H]1[C@@H](C(=O)NC2CCC(C(F)(F)F)C2)[C@H]2CC[C@@H]1/C2=C\C1CC1 (stereo partly shown) [compound 649]
38 | 1 | COc1ccc(-c2cc(C(OC(=O)NC3CCC3)C(F)(F)F)ccc2F)cc1C(=O)N[C@@H]1C2CCC(/C2=C/C2CC2)[C@@H]1C(=O)Nc1ccc(F)c(C(F)(F)F)c1 (stereo partly shown) [compound 211]
39 | 39 | COc1ccc(C2=NOC3C(O)CC(O)C23)cc1C(=O)N[C@H]1[C@@H](C(=O)Nc2ccc(F)c(C(F)(F)F)c2)[C@H]2CC[C@@H]1/C2=C\C1CC1 (stereo partly drawn) [Example 413, (1R,2S,3R,4R,Z)-7-(cyclopropylmethylene)-3-(5-(4,6-dihydroxy-3a,5,6,6a-tetrahydro-4H-cyclopenta[d]isoxazol-3-yl)-2-methoxybenzamido)-N-(4-fluoro-3-(trifluoromethyl)phenyl)bicyclo[2.2.1]heptane-2-carboxamide]
40 | 920 | COc1cc(F)c(F)cc1C(=O)N[C@@H]1C2CCC(/C2=C/c2cc(C)cc(C)c2)[C@@H]1C(=O)Nc1ccc(F)c(C(F)(F)F)c1 (stereo partly shown) [compound 60]
